Measurements taken from US5189038A, “Method of stimulating superoxide generation” (G. D. Searle and Co., priority 1991, dated 1993).
Values joined by “and” are separate entries in the source; they are usually repeats but may differ in a detail not shown here. Equal values may be shown once. Where a name gives a salt, the structure may show the parent alone.

Key:
[1] = tested on: FMLP-stimulated human neutrophils (superoxide generation); test: Human neutrophil superoxide generation (FMLP-stimulated, cytochrome C reduction); assay type: cell-based; conditions: for activation at 5 µM / activation at 10 µM: read-out: Stimulation of FMLP Induced Superoxide, above control; for Stimulation of FMLP Induced Superoxide: concentrations at which compound stimulates: "Stimulates at" concentration range
Procedure: The compounds of the invention are evaluated with respect to superoxide modulating activity according to the following assay procedure:
Human neutrophil superoxide generation: Superoxide generation by formyl-methionyl-leucyl-phenylalanine (FMLP)-stimulated neutrophils was quantitated by the reduction of cytochrome C (Badwey, J. A., Curnutte, J. T. and Karnovsky, M. L., cis-Polyunsaturated fatty acids induce high levels of superoxide production by human neutrophils. J. Biol. Chem. 256: 12640-12643, 1981.) To 5 million neutrophils in 2.85 ml of KrebsRinger phosphate buffer, pH 7.2, 50 ul of inhibitor (in 10% DMSO/buffer), and 50 ul ferricytochrome C (5 mM, stock) were added and preincubated for 3 minutes at 37° C. Absorption measurements at 550 nm were recorded at start of preincubation. Fifty ul FMLP (6 uM, stock) was added to initiate reaction. A plateau was reached within 3 minutes and this reading--initial reading (before addition of FMLP) was used to calculate nanomoles of superoxide generated based on a molar extinction coefficient of 2.1×10^4 cm^-1 mole^-1.
Isolation of human neutrophils: Human neutrophils were isolated from freshly drawn blood of healthy donors. Two ml of 5% dextran (MW 200,000-300,000) in saline was added to 10 ml aliquots of blood, mixed and placed upright for 45 min. at 37° C. Approx. 8-10 ml of the plasma-white cell suspension from the dextran sedimentation was layered on 3 ml of Ficol-paque in a 15 ml tube and centrifuged at 400 g for 30 min. The supernate, containing plasma and platelets, was discarded by aspiration, and the pellet, containing predominantly neutrophils, was resuspended in 1 ml saline. The suspension was transferred to a clean tube, and pooled with other aliquots of blood treated similarly. The pooled suspension was centrifuged at 350 g for 5 min. and supernate discarded. The pellet was resuspended in 5 ml of 0.05% NaCl with a plastic Pasteur pipette for 25 seconds to lyse contaminating red cells, then 5 ml of 1.75% NaCl added to regain isotonicity. The red cell lysing procedure was repeated, the cells suspended in appropriate buffer (depending on assay) and counted.
For comparison the compound of Formula IV, a known 5-lipoxygenase inhibitor described in U.S. Pat. No. 4,755,524 was used. [drawing 20] (±)[2S*-[[3.5-bis(1,1-dimethylethyl)-4-hydroxyphenyl]thio]-1R*-methylpro poxy]acetic acid

[2] = molecular target: T1, 5-lipoxygenase (Rattus norvegicus, UniProt P12527); test: Inhibition of 5-lipoxygenase, in vitro (5-HETE synthesis by RBL-1 100,000×g supernatant); assay type: biochemical; conditions: for IC50: RBL-1 homogenate supernatant, 5-HETE synthesis
T1 construct: supernatant fraction of Rat Basophilic Leukemia Cell Homogenate (RBL-1) serves as a 5-lipoxygenase enzyme source; endogenous in cells; host or cells: RBL-1 (rat basophilic leukemia) cells, 100,000×g supernatant of homogenate
T1 sequence (P12527 1-673): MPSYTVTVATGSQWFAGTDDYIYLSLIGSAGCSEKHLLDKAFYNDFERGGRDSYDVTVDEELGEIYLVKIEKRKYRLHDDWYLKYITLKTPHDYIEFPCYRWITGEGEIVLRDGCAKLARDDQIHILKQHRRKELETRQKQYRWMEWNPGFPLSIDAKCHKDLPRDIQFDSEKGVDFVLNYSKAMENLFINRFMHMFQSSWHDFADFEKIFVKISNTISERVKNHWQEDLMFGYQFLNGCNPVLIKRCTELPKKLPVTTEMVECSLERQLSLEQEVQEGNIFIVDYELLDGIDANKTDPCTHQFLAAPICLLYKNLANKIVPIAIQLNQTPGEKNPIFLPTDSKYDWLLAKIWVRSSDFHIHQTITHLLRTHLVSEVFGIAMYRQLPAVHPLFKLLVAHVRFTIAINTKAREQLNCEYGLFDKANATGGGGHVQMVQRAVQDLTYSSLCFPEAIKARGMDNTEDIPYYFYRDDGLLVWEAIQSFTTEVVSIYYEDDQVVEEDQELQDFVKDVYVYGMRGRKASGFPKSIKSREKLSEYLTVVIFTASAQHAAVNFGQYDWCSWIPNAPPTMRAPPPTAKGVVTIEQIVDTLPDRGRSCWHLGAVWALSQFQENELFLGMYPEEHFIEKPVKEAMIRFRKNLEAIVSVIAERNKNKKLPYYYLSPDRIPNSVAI
Procedure: The compounds of the invention are evaluated with respect to 5-lipoxygenaseinhibition according to the following assay procedure.
Inhibition of 5-lipoxygenase, in vitro:
anti-inflammatory, anti-allergy activities.
The 100,000×g supernatant fraction of Rat Basophilic Leukemia Cell Homogenate (RBL-1) serves as a 5-lipoxygenase enzyme source. The enzyme is incubated with [1-^14 C)-arachidonic acid and Ca++ in the presence and absence of test compound. The product of 5-lipoxygenase, 5-hydroxyeicosatetraenoic acid (5-HETE), is separated by thin-layer chromatography and measured by radioactivity. A compound inhibiting 5-HETE synthesis by 30% or more is considered active at that concentration.

IC50 [2] | SMILES | activation at 5 µM ([1]; Homo sapiens, Neutrophil) | activation at 10 µM ([1]; Homo sapiens, Neutrophil) | Stimulation of FMLP Induced Superoxide: concentrations at which compound stimulates [1] | also measured
 | CN(CCc1ccccn1)C(=O)CCSc1cc(C(C)(C)C)c(O)c(C(C)(C)C)c1 [Example 5, 3-[[3,5-bis(1,1-dimethylethyl)-4-hydroxyphenyl]thio]-N-methyl-N-[2-(2-pyridinyl)ethyl]propanamide monohydrochloride] | 50% | 227% |  | 
160 nM | CC(C)(C)c1cc(SCCC(=O)N2CCN(Cc3ccccc3)CC2)cc(C(C)(C)C)c1O [Example 8, 1-[3-[[3,5-Bis(1,1-dimethylethyl)4-hydroxyphenyl]thio]-1-oxopropyl]-4-(phenylmethyl)piperazine] | 150% | 206% |  | 
 | C[C@H](Sc1cc(C(C)(C)C)c(O)c(C(C)(C)C)c1)[C@@H](C)OCC(=O)O (relative stereo) [Formula IV, (±)[2S*-[[3.5-bis(1,1-dimethylethyl)-4-hydroxyphenyl]thio]-1R*-methylpropoxy]acetic acid, reference compound] |  |  |  | Effect on 5-lipoxygenase (in words) [2]: inhibited both superoxide generation and 5-lipoxygenase; IC50 ([1]; Homo sapiens, Neutrophil, inhibition of FMLP induced superoxide, read-out: Inhibited superoxide generation, IC50): 11 µM; Effect on superoxide generation (in words) ([1]; neutrophils): inhibited both superoxide generation and 5-lipoxygenase
260 nM | CC(C)C(O)CCSc1cc(C(C)(C)C)c(O)c(C(C)(C)C)c1 (centres unmarked) [Example 9, 2,6-bis(1,1-dimethylethyl)-4-[(3-hydroxy-4-methylpentyl)thio]phenol] |  |  | 5 to 50 µM | 
230 nM and 330 nM | Cc1cccc(C)c1NC(=O)CCSc1cc(C(C)(C)C)c(O)c(C(C)(C)C)c1 [Example 7, 3-[[3,5-bis(1,1-dimethylethyl)-4-hydroxyphenyl]thio]-N-(2,6-dimethylphenyl)propanamide] |  |  | 3 to 20 µM | 
790 nM | CC(C)C(C)(O)CCSc1cc(C(C)(C)C)c(O)c(C(C)(C)C)c1 (centres unmarked) [Example 10, 2,6-bis(1,1-dimethylethyl)-4-[(3-hydroxy-3,4-dimethylpentyl)thio]phenol] |  |  | 5 to 50 µM | 
